Columns and labels:
HepG2 = assay: CCK-8 antiproliferative assay, HepG2; type: cell-based; details: Homo sapiens, HepG2; CCK-8, 48 h, mean ± SD of three experiments; read-out: IC50 HepG2
Method: After synthesis and characterization, the isolongifolenone bicyclocaprolactam derivatives were evaluated for their in vitro antiproliferative activity against three cancer cell lines (MCF-7, HepG2, A549) using a CCK-8 assay. […] In general, the antiproliferative activities of most of these compounds were similar, irrespective of whether electron-withdrawing or electron-donating substituents were introduced in the phenoxy ring.
(§1) Three cancer cell lines (human breast adenocarcinoma cells MCF-7, human lung adenocarcinoma epithelial cells A549, and human hepatocellular carcinoma cells HepG2) were obtained from the Cell Bank of the Chinese Academy of Sciences (Shanghai, China). LO2 human normal liver cells were also purchased from STEM RECELL (Beijing, China, STM-CL-5770). The anti-proliferation activity of compounds was tested on three cancer cell lines. The cytotoxicity of compounds as tested on normal cell line (human normal liver cells LO2). Cells were seeded at a density of 5000 cells per well in 96-well plates. Natural product piperlongumine was used as the positive control. All experiments were performed in triplicate. Three cancer cell lines were cultured in High DMEM medium or RIPM 1640 containing 10% FBS (Sijiqing, Hangzhou, China) and 1% antibiotics at 37 °C in a 5% CO2 incubator. The experimental cells were seeded in a 96-well plate at 5000 cells per well and incubated for 24 h. The old medium was replaced with experimental medium, and the cells were cultured for 48 h. Afterward, 10 µL of CCK-8 solution was added to each well, and the cells were incubated for 3 h. The absorbance at 450 nm was measured using a microplate reader.

LO2 = assay: CCK-8 cytotoxicity on normal cell line LO2; type: cell-based; details: Homo sapiens, L02; normal liver cells, CCK-8, 48 h, mean ± SD of three experiments
Method: as §1

MCF-7 cells [1] = assay: Cell cycle assay (PI, flow cytometry); type: cell-based, human; details: 0.5, 1.0, 2.0 µM, 24 h
Method: As a cell progresses into different cell cycle phases, its DNA content varies because of DNA synthesis (which is required to prepare additional chromosome copies prior to cell division). Consequently, a flow cytometric analysis of DNA content can provide information on the number of cells in different cell cycle phases.
For cell cycle analysis, MCF-7 cells were seeded at a density of 2 × 10^5 cells per well in 6-well plates. MCF-7 cells were treated with different concentrations of compound E10 for 24 h. After that, the cells were washed with PBS twice, collected by trypsin enzymic digestion and centrifugation, and the collected cells were subsequently fixed with 70% ice-cold ethanol overnight at 4 °C. The cells were stained with PI (50 μg/mL) the next day. The cell cycle distributions were measured through flow cytometry (BD), and the data were analyzed by Modfit 5.1 software.

MCF-7 cells [2] = assay: Comet assay (DNA damage); type: cell-based, human; details: 24 h
Method: DNA fragmentation is a hallmark of apoptosis, mitotic catastrophe, or both. DNA damage in MCF-7 cells was investigated by single-cell gel electrophoresis in an agarose gel matrix (the ‘comet assay’). In this assay, the length of the ‘comet tail’ observed after EB staining of the cell nuclei is an indicator of the extent of DNA damage.
MCF-7 cells were seeded in 24-well plastic plates at a density of 5 × 10^4 cells per well and treated with compound E10 for 24 h. The alkaline DNA comet assay was performed according to the instructions of the OxiSelectTM Comet Assay Kit (Cell Biolabs, San Diego, CA, USA, Cat. # STA-350) and analyzed using a Zeiss fluorescent microscope (Jena, Germany). The free software Casplab-1.2.3b2 (CAS PLab, Wroclaw, Poland) was used to calculate the percentage of tail DNA and Olive Tail Moment (OTM) as markers of DNA damage (Olive Tail Moment = Tail DNA (%) × Tail Moment Length).

MCF-7 cells [3] = assay: Autophagy assay using transmission electron microscopy; type: cell-based, human; details: 24 h
Method: To investigate whether E10 induced autophagy in MCF-7 cells, we performed Monodansylcadaverine (MDC) staining, transmission electron microscopy (TEM), and Western blot analysis to evaluate autophagy-related markers. MDC is a fluorescent probe commonly used to detect the formation of autophagic vacuoles, as it specifically labels autophagosomes.
MCF-7 cells were treated with E10 for 24 h. Cells were washed twice with pre-cold PBS, fixed in 2% glutaraldehyde at 4 °C for 2 h. Then, the sample was post-fixed in 2% osmium tetroxide for 1 h at 4 °C in the dark. Samples were dehydrated through a graded ethanol series, infiltrated and embedded in Spurr’s resin, and polymerized at 60 °C overnight. Ultrathin sections (~70–90 nm) were cut on an ultramicrotome, mounted on copper grids, counterstained with uranyl acetate and lead citrate, and examined by transmission electron microscopy (JEM-100CX; JEOL, Tokyo, Japan) at the indicated magnifications.

MCF-7 xenograft = assay: Zebrafish MCF-7 xenograft model; type: in vivo
Source text: Zebrafish have become a well-established model for both anticancer drug discovery and toxicity evaluation. This animal model affords several unique advantages, including rapid development, optical transparency, and genetic conservation with humans. These features make zebrafish particularly suitable for high-throughput in vivo screening and mechanistic studies in oncology research. Tumor burden in zebrafish xenografts is commonly quantified from Dil/DiI-labeled fluorescence area or integrated intensity, which correlates with cell number and treatment response. To assess the in vivo antitumor efficacy of compound E10, we established a zebrafish xenograft model. Briefly, CM-Dil-labeled MCF-7 cells (showing red fluorescence) were microinjected into the yolk sacs of zebrafish embryos. The xenografted zebrafish were then randomly assigned into five groups: three E10-treatment groups (0.5 µg/mL, 1.0 µg/mL, and 2.0 µg/mL), a Doxorubicin (Dox) positive control group, and a PBS negative control group.
All experimental procedures were approved by ACUC of Shandong Academy of Sciences (Animal Care and Use Committee). Wild-type AB of zebrafish were obtained from Biology Institute, Qilu University of Technology. The embryos were incubated in special embryonic medium (0.17 mM KCl, 5.0 mM NaCl, 0.4 mM CaCl2, and 0.16 mM MgSO4) at 28 °C. 48 h-old zebrafish embryos were microinjected with CM-Dil labelled MCF-7 cells under stereomicroscopy. After injection, zebrafish embryos with the same injection spot were randomly planted on a six-well plate. These xenograft zebrafish were sorted into four groups of about 15–20 zebrafish each and treated with 0.5, 1.0, 2.0 μg/mL of compound E10 for 48 h, 1.0 μM doxorubicin as a positive control group. After treatment, the fluorescence intensity of living cells was examined with laser confocal microscopy (Olympus, Tokyo, Japan).

Structure (SMILES): CC1(C)C2=CC(=O)N(C(=O)C=Cc3cccc(C(F)(F)F)c3)CC(C)(C)C23CCC1C3 (stereo not shown) [E10, 5,5,9,9-Tetramethyl-3-(3-(3-(trifluoromethyl)phenyl)acryloyl)-4,5,6,7,8,9-hexahydro-5a,8-methanobenzo[d]azepin-2(3H)-one]
- IC50 (HepG2): 1.36 ± 0.18 µM
- IC50 (LO2): 14.41 ± 0.04 µM
- effect on cell cycle (MCF-7 cells [1]): cell cycle arrest at the G0/G1 phase
- DNA damage, comet formation (MCF-7 cells [2]): induced DNA fragmentation
- TEM, autophagic vesicles (MCF-7 cells [3]): presence of membrane-bound autophagic vesicles
- inhibition rate (decrease in fluorescence) (MCF-7 xenograft; 2.0 µg/mL E10, 48 h): 50.0%
- fluorescence intensity of xenograft (MCF-7 xenograft; 48 h, compared with PBS control, Dox 1.0 μM): notable reduction in fluorescence intensity
